Laboratory results: patent publication US8952024B2, “Herbicidal pyrimidone derivatives” (E I du Pont de Nemours and Company, priority 2009, dated 2015)

Tests used:
Format in all cases: in vivo
[1] = system: Italian ryegrass (Lolium multiflorum); test: Test B pre-/postemergence plant response; details: for Ryegrass, Italian plant response rating (0 to 100 scale): 0 is no effect
In short: (§1)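 Visual ratings on a 0–100 scale (100 = complete control) were made versus untreated controls 13–15 days after treatment in a greenhouse. Compounds in surfactant-containing non-phytotoxic solvent were applied preemergence to seeds in loam–sand blend or postemergence to 1- to 4-leaf plants (2–18 cm).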

[2] = system: Surinam grass (Brachiaria decumbens); test: Test B pre-/postemergence plant response; details: for Surinam Grass plant response rating (0 to 100 scale): 0 is no effect
In short: as §1

[3] = system: blackgrass (Alopecurus myosuroides); test: Test B pre-/postemergence plant response; details: for Blackgrass plant response rating (0 to 100 scale): 0 is no effect
In short: as §1

[4] = system: cocklebur (Xanthium strumarium); test: Test B pre-/postemergence plant response; details: for Cocklebur plant response rating (0 to 100 scale): 0 is no effect
In short: as §1

[5] = system: corn (Zea mays); test: Test B pre-/postemergence plant response; details: for Corn plant response rating (0 to 100 scale): 0 is no effect
In short: as §1

[6] = system: downy bromegrass (Bromus tectorum); test: Test B pre-/postemergence plant response; details: for Bromegrass, Downy plant response rating (0 to 100 scale): 0 is no effect
In short: as §1

[7] = system: giant foxtail (Setaria faberii); test: Test B pre-/postemergence plant response; details: for Foxtail, Giant plant response rating (0 to 100 scale): 0 is no effect
In short: as §1

[8] = system: morningglory (Ipomoea coccinea); test: Test B pre-/postemergence plant response; details: for Morningglory plant response rating (0 to 100 scale): 0 is no effect
In short: as §1

[9] = system: pigweed (Amaranthus retroflexus); test: Test B pre-/postemergence plant response; details: for Pigweed plant response rating (0 to 100 scale): 0 is no effect
In short: as §1

[10] = system: wild oat (Avena fatua); test: Test B pre-/postemergence plant response; details: for Oat, Wild plant response rating (0 to 100 scale): 0 is no effect
In short: as §1

[11] = system: canarygrass (Phalaris minor); test: Test B postemergence plant response; details: for Canarygrass plant response rating (0 to 100 scale): 0 is no effect
In short: (§2)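 Plants at the 1- to 4-leaf stage (2 to 18 cm tall), grown in pots of peat moss/vermiculite medium with wetting agent and starter nutrients, received postemergence applications of test chemicals. After 13 to 15 days in a greenhouse, injury was rated visually against untreated controls on a 0 (no effect) to 100 (complete control) scale.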

[12] = system: chickweed (Stellaria media); test: Test B postemergence plant response; details: for Chickweed plant response rating (0 to 100 scale): 0 is no effect
In short: as §2

[13] = system: windgrass (Apera spica-venti); test: Test B postemergence plant response; details: for Windgrass plant response rating (0 to 100 scale): 0 is no effect
In short: as §2

[14] = 31 g ai/ha, postemergence, scale 0 to 100, 0 is no effect, 100 is complete control
[15] = Postemergence, 62 g ai/ha, scale 0 (no effect) to 100 (complete control), 13 to 15 days
[16] = Postemergence, 125 g ai/ha, visual rating after 13 to 15 days, scale 0 (no effect) to 100 (complete control)
[17] = Postemergence, 250 g ai/ha, scale 0 to 100 (0 no effect, 100 complete control)
[18] = Preemergence, 31 g ai/ha, scale 0 to 100 (0 no effect, 100 complete control)
[19] = Preemergence, 62 g ai/ha, scale 0 to 100 (0 no effect, 100 complete control)
[20] = Preemergence, 125 g ai/ha, scale 0 to 100, 0 no effect, 100 complete control
[21] = 250 g ai/ha, Preemergence, 0 to 100 scale
[22] = 62 g ai/ha, postemergence, 100 is complete control, 13 to 15 days
[23] = Postemergence, 31 g ai/ha, 0 to 100 scale (0 no effect, 100 complete control)
[24] = Postemergence, 125 g ai/ha, scale 0 to 100 (0 no effect, 100 complete control)
[25] = Postemergence, 250 g ai/ha, scale 0 to 100 (0 no effect, 100 complete control), 13 to 15 days

Cc1cc(-n2c(-c3ccccc3)ncc(C(=O)C3=C(O)CCCC3=O)c2=O)ccc1F [Compound 53]
25: Plant response rating, Morningglory [8, 20]
90: Plant response rating, Cocklebur [4, 17] | Plant response rating, Foxtail, Giant [7, 16] | Plant response rating, Canarygrass [11, 16] | Plant response rating, Canarygrass [11, 17]
40: Plant response rating, Ryegrass, Italian [1, 16] | Plant response rating, Blackgrass [3, 16] | Plant response rating, Canarygrass [11, 14]
75: Plant response rating, Surinam Grass [2, 18] | Plant response rating, Morningglory [8, 15]
98: Plant response rating, Surinam Grass [2, 16] | Plant response rating, Surinam Grass [2, 17] | Plant response rating, Morningglory [8, 17] | Plant response rating, Pigweed [9, 19] | Plant response rating, Chickweed [12, 15] | Plant response rating, Chickweed [12, 16]
100: Plant response rating, Surinam Grass [2, 20] | Plant response rating, Foxtail, Giant [7, 21] | Plant response rating, Foxtail, Giant [7, 20] | Plant response rating, Pigweed [9, 16] | Plant response rating, Pigweed [9, 17] | Plant response rating, Pigweed [9, 20] | Plant response rating, Chickweed [12, 17]
0: Plant response rating, Ryegrass, Italian [1, 14] | Plant response rating, Ryegrass, Italian [1, 18] | Plant response rating, Ryegrass, Italian [1, 19] | Plant response rating, Ryegrass, Italian [1, 20] | Plant response rating, Blackgrass [3, 18] | Plant response rating, Corn [5, 18] | Plant response rating, Corn [5, 19] | Plant response rating, Corn [5, 20] | Plant response rating, Bromegrass, Downy [6, 18] | Plant response rating, Bromegrass, Downy [6, 19] | Plant response rating, Morningglory [8, 18] | Plant response rating, Oat, Wild [10, 18] | Plant response rating, Oat, Wild [10, 19] | Plant response rating, Oat, Wild [10, 20]
65: Plant response rating, Cocklebur [4, 20]
55: Plant response rating, Corn [5, 14] | Plant response rating, Bromegrass, Downy [6, 16] | Plant response rating, Morningglory [8, 14]
10: Plant response rating, Cocklebur [4, 18]
5: Plant response rating, Ryegrass, Italian [1, 15] | Plant response rating, Blackgrass [3, 19] | Plant response rating, Blackgrass [3, 20] | Plant response rating, Bromegrass, Downy [6, 20] | Plant response rating, Foxtail, Giant [7, 18]
50: Plant response rating, Blackgrass [3, 17] | Plant response rating, Bromegrass, Downy [6, 15] | Plant response rating, Oat, Wild [10, 14]
20: Plant response rating, Blackgrass [3, 14] | Plant response rating, Cocklebur [4, 19] | Plant response rating, Corn [5, 21] | Plant response rating, Morningglory [8, 19]
45: Plant response rating, Ryegrass, Italian [1, 17]
85: Plant response rating, Surinam Grass [2, 14] | Plant response rating, Surinam Grass [2, 19] | Plant response rating, Cocklebur [4, 15] | Plant response rating, Cocklebur [4, 16] | Plant response rating, Corn [5, 17] | Plant response rating, Foxtail, Giant [7, 15] | Plant response rating, Foxtail, Giant [7, 19] | Plant response rating, Pigweed [9, 14] | Plant response rating, Oat, Wild [10, 16] | Plant response rating, Oat, Wild [10, 17] | Plant response rating, Chickweed [12, 14] | Plant response rating, Windgrass [13, 16]
70: Plant response rating, Cocklebur [4, 21] | Plant response rating, Oat, Wild [10, 15]
35: Plant response rating, Bromegrass, Downy [6, 14]
80: Plant response rating, Cocklebur [4, 14] | Plant response rating, Corn [5, 15] | Plant response rating, Corn [5, 16] | Plant response rating, Foxtail, Giant [7, 14] | Plant response rating, Morningglory [8, 16] | Plant response rating, Canarygrass [11, 15] | Plant response rating, Windgrass [13, 15]
60: Plant response rating, Blackgrass [3, 21] | Plant response rating, Bromegrass, Downy [6, 17] | Plant response rating, Windgrass [13, 14]
95: Plant response rating, Surinam Grass [2, 15] | Plant response rating, Foxtail, Giant [7, 17] | Plant response rating, Pigweed [9, 15] | Plant response rating, Pigweed [9, 18] | Plant response rating, Windgrass [13, 17]
30: Plant response rating, Blackgrass [3, 15] | Plant response rating, Bromegrass, Downy [6, 21]

CCCn1c(-c2cc(F)cc(F)c2)ncc(C(=O)C2=C(O)CCCC2=O)c1=O [Compound 152]
95: Plant response rating, Surinam Grass [2, 25] | Plant response rating, Foxtail, Giant [7, 24] | Plant response rating, Morningglory [8, 25] | Plant response rating, Pigweed [9, 23] | Plant response rating, Chickweed [12, 25]
50: Plant response rating, Windgrass [13, 23]
70: Plant response rating, Blackgrass [3, 25] | Plant response rating, Cocklebur [4, 23] | Windgrass plant response rating (0 to 100 scale) [13, 22]
85: Surinam Grass plant response rating (0 to 100 scale) [2, 22] | Plant response rating, Bromegrass, Downy [6, 25] | Foxtail, Giant plant response rating (0 to 100 scale) [7, 22] | Plant response rating, Oat, Wild [10, 25] | Plant response rating, Canarygrass [11, 25] | Plant response rating, Windgrass [13, 24]
45: Plant response rating, Ryegrass, Italian [1, 24] | Corn plant response rating (0 to 100 scale) [5, 22] | Plant response rating, Morningglory [8, 23] | Oat, Wild plant response rating (0 to 100 scale) [10, 22] | Canarygrass plant response rating (0 to 100 scale) [11, 22]
60: Plant response rating, Bromegrass, Downy [6, 24]
20: Plant response rating, Blackgrass [3, 23]
5: Plant response rating, Ryegrass, Italian [1, 23]
80: Plant response rating, Ryegrass, Italian [1, 25] | Cocklebur plant response rating (0 to 100 scale) [4, 22] | Plant response rating, Corn [5, 25] | Plant response rating, Foxtail, Giant [7, 23] | Plant response rating, Oat, Wild [10, 24] | Plant response rating, Canarygrass [11, 24]
25: Plant response rating, Corn [5, 23]
100: Plant response rating, Cocklebur [4, 25] | Plant response rating, Pigweed [9, 24] | Plant response rating, Pigweed [9, 25]
55: Plant response rating, Blackgrass [3, 24] | Bromegrass, Downy plant response rating (0 to 100 scale) [6, 22]
75: Plant response rating, Surinam Grass [2, 23] | Morningglory plant response rating (0 to 100 scale) [8, 22] | Plant response rating, Morningglory [8, 24]
90: Plant response rating, Surinam Grass [2, 24] | Plant response rating, Chickweed [12, 24]
30: Ryegrass, Italian plant response rating (0 to 100 scale) [1, 22] | Plant response rating, Bromegrass, Downy [6, 23] | Plant response rating, Oat, Wild [10, 23]
10: Plant response rating, Chickweed [12, 23]
65: Plant response rating, Corn [5, 24] | Chickweed plant response rating (0 to 100 scale) [12, 22]
98: Plant response rating, Cocklebur [4, 24] | Plant response rating, Foxtail, Giant [7, 25] | Pigweed plant response rating (0 to 100 scale) [9, 22] | Plant response rating, Windgrass [13, 25]
35: Blackgrass plant response rating (0 to 100 scale) [3, 22] | Plant response rating, Canarygrass [11, 23]

COCCn1c(-c2cccc(Cl)c2)ncc(C(=O)C2=C(O)CCCC2=O)c1=O [Compound 147]
40: Plant response rating, Ryegrass, Italian [1, 25] | Blackgrass plant response rating (0 to 100 scale) [3, 22] | Plant response rating, Corn [5, 25]
25: Plant response rating, Corn [5, 24]
0: Plant response rating, Corn [5, 23] | Plant response rating, Bromegrass, Downy [6, 23] | Canarygrass plant response rating (0 to 100 scale) [11, 22] | Plant response rating, Canarygrass [11, 23]
85: Plant response rating, Foxtail, Giant [7, 24] | Plant response rating, Pigweed [9, 23]
50: Plant response rating, Surinam Grass [2, 23] | Plant response rating, Cocklebur [4, 23] | Morningglory plant response rating (0 to 100 scale) [8, 22] | Plant response rating, Morningglory [8, 23] | Windgrass plant response rating (0 to 100 scale) [13, 22]
75: Plant response rating, Surinam Grass [2, 24] | Plant response rating, Surinam Grass [2, 25] | Cocklebur plant response rating (0 to 100 scale) [4, 22]
90: Plant response rating, Cocklebur [4, 24] | Plant response rating, Foxtail, Giant [7, 25] | Chickweed plant response rating (0 to 100 scale) [12, 22]
5: Ryegrass, Italian plant response rating (0 to 100 scale) [1, 22] | Plant response rating, Ryegrass, Italian [1, 23] | Bromegrass, Downy plant response rating (0 to 100 scale) [6, 22] | Plant response rating, Bromegrass, Downy [6, 24] | Plant response rating, Oat, Wild [10, 23] | Plant response rating, Canarygrass [11, 24] | Plant response rating, Canarygrass [11, 25]
15: Corn plant response rating (0 to 100 scale) [5, 22]
95: Pigweed plant response rating (0 to 100 scale) [9, 22]
55: Plant response rating, Blackgrass [3, 25] | Plant response rating, Windgrass [13, 24]
70: Plant response rating, Chickweed [12, 23] | Plant response rating, Windgrass [13, 25]
98: Plant response rating, Chickweed [12, 24] | Plant response rating, Chickweed [12, 25]
10: Plant response rating, Blackgrass [3, 23] | Plant response rating, Bromegrass, Downy [6, 25] | Oat, Wild plant response rating (0 to 100 scale) [10, 22] | Plant response rating, Windgrass [13, 23]
80: Foxtail, Giant plant response rating (0 to 100 scale) [7, 22]
20: Plant response rating, Oat, Wild [10, 24]
30: Plant response rating, Ryegrass, Italian [1, 24]
65: Surinam Grass plant response rating (0 to 100 scale) [2, 22] | Plant response rating, Foxtail, Giant [7, 23] | Plant response rating, Morningglory [8, 24]
100: Plant response rating, Cocklebur [4, 25] | Plant response rating, Morningglory [8, 25] | Plant response rating, Pigweed [9, 24] | Plant response rating, Pigweed [9, 25]
45: Plant response rating, Blackgrass [3, 24] | Plant response rating, Oat, Wild [10, 25]
